# Target: T1, human α1G T-type channels (Homo sapiens, UniProt O43497)
# T1 construct: expressed in transfected cells; host or cells: HEK 293
# Experiment: T-type calcium channel block, whole cell patch clamp in HEK cells (α1G)
# Format: cell-based
# Details: HEK cells, patch clamp, mainly non-inactivated protocol; values above 10 μM shown as 10 μM, below 0.30 μM shown as 0.30 μM; read-out: T-type Calcium Channel Block α1G IC50
# T1 sequence (O43497 whole entry): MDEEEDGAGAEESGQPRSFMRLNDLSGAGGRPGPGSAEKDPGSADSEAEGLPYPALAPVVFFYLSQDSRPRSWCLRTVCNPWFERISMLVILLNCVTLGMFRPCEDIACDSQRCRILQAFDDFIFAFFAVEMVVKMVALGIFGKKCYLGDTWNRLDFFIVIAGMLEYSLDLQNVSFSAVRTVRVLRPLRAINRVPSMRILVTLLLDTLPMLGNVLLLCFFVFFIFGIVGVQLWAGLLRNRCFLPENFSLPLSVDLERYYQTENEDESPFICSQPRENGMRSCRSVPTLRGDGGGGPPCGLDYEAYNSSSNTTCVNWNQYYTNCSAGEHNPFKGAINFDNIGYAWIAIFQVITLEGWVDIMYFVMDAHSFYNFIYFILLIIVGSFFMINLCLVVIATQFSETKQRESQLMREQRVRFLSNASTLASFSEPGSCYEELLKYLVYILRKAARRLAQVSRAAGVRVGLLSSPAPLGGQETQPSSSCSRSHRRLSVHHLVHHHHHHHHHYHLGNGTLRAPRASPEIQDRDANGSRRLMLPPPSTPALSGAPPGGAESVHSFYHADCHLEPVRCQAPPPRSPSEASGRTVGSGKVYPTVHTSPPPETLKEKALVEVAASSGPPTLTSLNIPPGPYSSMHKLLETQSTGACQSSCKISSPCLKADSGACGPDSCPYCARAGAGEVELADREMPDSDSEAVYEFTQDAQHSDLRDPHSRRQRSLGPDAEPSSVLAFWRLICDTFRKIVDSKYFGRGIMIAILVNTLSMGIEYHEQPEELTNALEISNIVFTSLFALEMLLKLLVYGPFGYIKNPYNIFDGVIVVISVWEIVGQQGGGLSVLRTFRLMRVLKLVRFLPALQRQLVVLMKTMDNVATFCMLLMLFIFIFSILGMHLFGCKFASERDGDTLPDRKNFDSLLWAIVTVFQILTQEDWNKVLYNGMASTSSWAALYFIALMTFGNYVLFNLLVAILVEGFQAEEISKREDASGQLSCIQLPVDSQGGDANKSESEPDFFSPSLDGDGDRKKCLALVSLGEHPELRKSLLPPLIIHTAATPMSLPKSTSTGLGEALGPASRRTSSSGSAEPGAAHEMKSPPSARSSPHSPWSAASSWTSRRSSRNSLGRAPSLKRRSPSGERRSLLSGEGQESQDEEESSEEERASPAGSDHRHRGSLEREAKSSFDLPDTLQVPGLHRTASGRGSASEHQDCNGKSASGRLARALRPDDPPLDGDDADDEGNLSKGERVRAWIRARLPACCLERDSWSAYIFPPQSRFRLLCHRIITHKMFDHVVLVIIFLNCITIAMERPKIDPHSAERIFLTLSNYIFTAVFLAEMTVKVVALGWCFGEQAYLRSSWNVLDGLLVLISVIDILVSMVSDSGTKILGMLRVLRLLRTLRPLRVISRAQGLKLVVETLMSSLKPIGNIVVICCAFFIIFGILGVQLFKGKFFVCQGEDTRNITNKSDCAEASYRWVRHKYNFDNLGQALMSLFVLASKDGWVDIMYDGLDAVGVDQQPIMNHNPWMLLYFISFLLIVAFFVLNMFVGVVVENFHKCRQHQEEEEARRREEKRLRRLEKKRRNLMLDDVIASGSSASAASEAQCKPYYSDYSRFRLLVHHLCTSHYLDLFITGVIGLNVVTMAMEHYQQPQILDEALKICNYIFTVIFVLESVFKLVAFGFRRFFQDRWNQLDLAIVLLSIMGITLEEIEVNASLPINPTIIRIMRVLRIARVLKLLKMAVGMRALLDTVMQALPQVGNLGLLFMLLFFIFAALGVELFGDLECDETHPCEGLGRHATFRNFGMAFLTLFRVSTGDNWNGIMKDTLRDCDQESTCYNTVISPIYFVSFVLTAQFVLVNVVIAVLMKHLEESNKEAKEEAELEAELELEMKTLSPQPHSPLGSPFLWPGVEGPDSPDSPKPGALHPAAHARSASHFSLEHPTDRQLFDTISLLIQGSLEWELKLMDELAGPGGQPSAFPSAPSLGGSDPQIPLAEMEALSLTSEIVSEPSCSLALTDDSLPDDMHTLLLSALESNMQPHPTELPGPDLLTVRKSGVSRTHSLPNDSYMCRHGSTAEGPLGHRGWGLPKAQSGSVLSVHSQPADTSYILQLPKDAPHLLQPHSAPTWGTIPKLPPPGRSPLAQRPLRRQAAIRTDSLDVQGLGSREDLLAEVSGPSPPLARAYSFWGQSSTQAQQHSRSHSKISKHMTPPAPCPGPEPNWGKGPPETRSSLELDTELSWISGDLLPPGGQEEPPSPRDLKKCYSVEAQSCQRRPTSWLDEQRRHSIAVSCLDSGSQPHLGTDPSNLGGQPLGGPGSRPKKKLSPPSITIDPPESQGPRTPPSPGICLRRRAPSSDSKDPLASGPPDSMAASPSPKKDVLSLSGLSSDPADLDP
row,IC50,SMILES
1,1010 nM,"CS(=O)(=O)NC1(CN2CCC(CNC(=O)c3cc(C(F)(F)F)cc(C(F)(F)F)c3)CC2)CCCC1 [Compound 1, N-((1-((1-(methylsulfonamido)cyclopentyl)methyl)piperidin-4-yl)methyl)-3,5-bis(trifluoromethyl)benzamide]"
2,< 300 nM,"O=C(NCC1CCN(CC2(NS(=O)(=O)C3CC3)CCCC2)CC1)c1cc(C(F)(F)F)cc(C(F)(F)F)c1 [Compound 2, N-((1-((1-(cyclopropanesulfonamido)cyclopentyl)methyl)piperidin-4-yl)methyl)-3,5-bis(trifluoromethyl)benzamide]"
3,< 300 nM,"CCS(=O)(=O)NC1(CN2CCC(CNC(=O)c3cc(C(F)(F)F)cc(C(F)(F)F)c3)CC2)CCCC1 [Compound 3, N-((1-((1-(ethylsulfonamido)cyclopentyl)methyl)piperidin-4-yl)methyl)-3,5-bis(trifluoromethyl)benzamide]"
4,1890 nM,"CCNC(=O)NC1(CN2CCC(CNC(=O)c3cc(C(F)(F)F)cc(C(F)(F)F)c3)CC2)CCCC1 [Compound 11, N-((1-((1-(3-ethylureido)cyclopentyl)methyl)piperidin-4-yl)methyl)-3,5-bis(trifluoromethyl)benzamide]"

# Target: T2, human α1H T-type channels (Homo sapiens, UniProt O95180)
# T2 construct: expressed in transfected cells; host or cells: HEK 293
# Experiment: T-type calcium channel block, whole cell patch clamp in HEK cells (α1H)
# Format: cell-based
# Details: HEK cells, patch clamp, mainly non-inactivated protocol; values above 10 μM shown as 10 μM; read-out: T-type Calcium Channel Block α1H IC50
# Description: T-type calcium channel blocking activity was assayed in human embryonic kidney cells, HEK 293, stably transfected with the T-type calcium channel subunits. Briefly, cells were cultured in Dulbecco's modified eagle medium (DMEM) supplemented with 10% fetal bovine serum, 200 U/ml penicillin and 0.2 mg/ml streptomycin at 37° C. with 5% CO2. At 85% confluency cells were split with 0.25% trypsin/1 mM EDTA and plated at 10% confluency on glass coverslips. […] Fresh DMEM was supplied and the cells transferred to 28° C./5% CO2. Cells were incubated for 1 to 2 days prior to whole cell recording.
# Standard patch-clamp techniques were employed to identify blockers of T-type currents. Briefly, previously described HEK cell lines stably expressing human α1G, α1H and α1I T-type channels were used for all the recordings (passage #: 4-20, 37° C., 5% CO2). Whole cell patch clamp experiments were performed using an Axopatch 200B amplifier (Axon Instruments, Burlingame, Calif.) linked to a personal computer equipped with pCLAMP software. Data were analyzed using Clampfit (Axon Instruments) and SigmaPlot 4.0 (Jandel Scientific). To obtain T-type currents, plastic dishes containing semi-confluent cells were positioned on the stage of a ZEISS AXIOVERT S100 microscope after replacing the culture medium with external solution (see below). Whole-cell patches were obtained using pipettes (borosilicate glass with filament, O.D.: 1.5 mm, I.D.: 0.86 mm, 10 cm length), fabricated on a SUTTER P-97 puller with resistance values of ˜5 MΩ (see below for internal solution).
# In the non-inactivating protocol, the holding potential is set at −110 mV and with a pre-pulse at −100 mV for 1 second prior to the test pulse at −40 mV for 50 ms.
# Test compounds were dissolved in external solution, 0.1-0.01% DMSO. After ˜10 min rest, they were applied by gravity close to the cell using a WPI microfil tubing. The “non-inactivated” pre-pulse was used to examine the resting block of a compound. The “inactivated” protocol was employed to study voltage-dependent block. […] Values are shown in μM and values above 10 μM are simply represented as 10 μM.
# T2 sequence (O95180 whole entry): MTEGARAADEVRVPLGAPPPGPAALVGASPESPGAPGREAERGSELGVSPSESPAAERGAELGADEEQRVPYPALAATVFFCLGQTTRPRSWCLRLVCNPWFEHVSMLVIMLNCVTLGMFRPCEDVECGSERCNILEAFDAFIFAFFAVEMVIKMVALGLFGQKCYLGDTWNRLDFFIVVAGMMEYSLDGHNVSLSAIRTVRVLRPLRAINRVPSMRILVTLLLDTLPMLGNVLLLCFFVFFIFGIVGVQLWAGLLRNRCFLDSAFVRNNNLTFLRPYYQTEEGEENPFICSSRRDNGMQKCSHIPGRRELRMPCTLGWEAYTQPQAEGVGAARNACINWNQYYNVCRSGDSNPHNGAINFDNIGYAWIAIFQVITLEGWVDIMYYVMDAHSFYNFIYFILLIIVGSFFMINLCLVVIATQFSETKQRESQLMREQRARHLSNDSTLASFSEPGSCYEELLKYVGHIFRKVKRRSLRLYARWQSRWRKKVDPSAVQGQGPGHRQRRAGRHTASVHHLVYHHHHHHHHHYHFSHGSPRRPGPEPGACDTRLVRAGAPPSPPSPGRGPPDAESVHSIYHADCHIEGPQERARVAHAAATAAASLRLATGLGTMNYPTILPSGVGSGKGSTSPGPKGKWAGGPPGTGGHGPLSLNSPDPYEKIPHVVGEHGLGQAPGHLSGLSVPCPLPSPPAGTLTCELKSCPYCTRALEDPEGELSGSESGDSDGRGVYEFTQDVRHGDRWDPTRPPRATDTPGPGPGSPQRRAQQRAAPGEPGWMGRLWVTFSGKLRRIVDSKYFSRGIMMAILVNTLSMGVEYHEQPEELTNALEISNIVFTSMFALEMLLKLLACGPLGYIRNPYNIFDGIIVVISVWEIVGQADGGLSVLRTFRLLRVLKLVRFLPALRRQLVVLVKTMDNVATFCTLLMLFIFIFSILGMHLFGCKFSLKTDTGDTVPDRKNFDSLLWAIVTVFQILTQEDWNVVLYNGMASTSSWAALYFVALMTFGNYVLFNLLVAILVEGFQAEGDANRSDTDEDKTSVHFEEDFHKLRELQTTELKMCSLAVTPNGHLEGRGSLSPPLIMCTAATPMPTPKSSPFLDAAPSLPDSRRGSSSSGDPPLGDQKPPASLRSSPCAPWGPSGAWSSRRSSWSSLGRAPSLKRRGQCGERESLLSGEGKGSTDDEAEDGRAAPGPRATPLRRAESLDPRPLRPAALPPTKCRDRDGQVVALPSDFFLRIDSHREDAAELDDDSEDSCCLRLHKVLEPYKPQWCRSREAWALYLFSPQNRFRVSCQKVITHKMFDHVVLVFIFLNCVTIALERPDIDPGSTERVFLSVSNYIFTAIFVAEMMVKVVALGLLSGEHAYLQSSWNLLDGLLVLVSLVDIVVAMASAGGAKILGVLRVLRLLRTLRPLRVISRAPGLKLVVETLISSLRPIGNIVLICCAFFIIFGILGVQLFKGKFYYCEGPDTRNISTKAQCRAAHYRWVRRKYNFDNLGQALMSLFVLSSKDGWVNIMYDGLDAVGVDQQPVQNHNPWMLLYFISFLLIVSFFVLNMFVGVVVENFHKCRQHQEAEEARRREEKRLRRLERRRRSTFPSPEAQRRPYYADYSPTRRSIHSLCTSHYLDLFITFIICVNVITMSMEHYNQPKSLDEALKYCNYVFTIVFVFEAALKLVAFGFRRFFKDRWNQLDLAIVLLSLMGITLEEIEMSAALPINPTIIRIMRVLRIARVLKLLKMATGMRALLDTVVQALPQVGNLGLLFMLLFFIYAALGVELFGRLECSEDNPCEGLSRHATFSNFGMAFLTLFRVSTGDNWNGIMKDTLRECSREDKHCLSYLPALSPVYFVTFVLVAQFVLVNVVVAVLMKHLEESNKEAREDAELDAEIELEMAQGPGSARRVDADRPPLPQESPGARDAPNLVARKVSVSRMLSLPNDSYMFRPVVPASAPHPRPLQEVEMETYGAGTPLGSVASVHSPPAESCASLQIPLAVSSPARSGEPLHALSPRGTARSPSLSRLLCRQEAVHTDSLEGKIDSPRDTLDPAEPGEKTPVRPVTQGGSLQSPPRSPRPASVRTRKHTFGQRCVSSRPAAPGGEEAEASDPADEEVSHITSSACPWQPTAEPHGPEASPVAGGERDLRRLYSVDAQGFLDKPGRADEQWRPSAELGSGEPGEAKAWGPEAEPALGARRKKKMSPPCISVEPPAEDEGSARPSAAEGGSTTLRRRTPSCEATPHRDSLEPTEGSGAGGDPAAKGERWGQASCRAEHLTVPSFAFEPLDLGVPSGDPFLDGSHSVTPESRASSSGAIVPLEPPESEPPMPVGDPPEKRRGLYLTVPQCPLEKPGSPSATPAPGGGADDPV
row,IC50,SMILES
1,370 nM,"CS(=O)(=O)NC1(CN2CCC(CNC(=O)c3cc(C(F)(F)F)cc(C(F)(F)F)c3)CC2)CCCC1 [Compound 1, N-((1-((1-(methylsulfonamido)cyclopentyl)methyl)piperidin-4-yl)methyl)-3,5-bis(trifluoromethyl)benzamide]"
2,540 nM,"O=C(NCC1CCN(CC2(NS(=O)(=O)C3CC3)CCCC2)CC1)c1cc(C(F)(F)F)cc(C(F)(F)F)c1 [Compound 2, N-((1-((1-(cyclopropanesulfonamido)cyclopentyl)methyl)piperidin-4-yl)methyl)-3,5-bis(trifluoromethyl)benzamide]"
3,550 nM,"CCS(=O)(=O)NC1(CN2CCC(CNC(=O)c3cc(C(F)(F)F)cc(C(F)(F)F)c3)CC2)CCCC1 [Compound 3, N-((1-((1-(ethylsulfonamido)cyclopentyl)methyl)piperidin-4-yl)methyl)-3,5-bis(trifluoromethyl)benzamide]"
4,3800 nM,"CCNC(=O)NC1(CN2CCC(CNC(=O)c3cc(C(F)(F)F)cc(C(F)(F)F)c3)CC2)CCCC1 [Compound 11, N-((1-((1-(3-ethylureido)cyclopentyl)methyl)piperidin-4-yl)methyl)-3,5-bis(trifluoromethyl)benzamide]"
5,> 10000 nM,"O=C(NCC1CCN(C(=O)CNC2CC2)CC1)c1cc(F)cc(C(F)(F)F)c1 [Compound 284, N-((1-(2-(cyclopropylamino)acetyl)piperidin-4-yl)methyl)-3-fluoro-5-(trifluoromethyl)benzamide]"
6,> 10000 nM,"O=C(NCC1CCN(CCN2CCCC2=O)CC1)c1cc(F)cc(C(F)(F)F)c1 [Compound 487, 3-fluoro-N-((1-(2-(2-oxopyrrolidin-1-yl)ethyl)piperidin-4-yl)methyl)-5-(trifluoromethyl)benzamide]"
7,> 10000 nM,"CS(=O)(=O)c1cc(C(=O)NCC2CCN(CC(=O)N3CCC[C@@H]3C(F)(F)F)CC2)cc(C(F)(F)F)c1 [Compound 589, (R)-3-(methylsulfonyl)-N-((1-(2-oxo-2-(2-(trifluoromethyl)pyrrolidin-1-yl)ethyl)piperidin-4-yl)methyl)-5-(trifluoromethyl) benzamide]"
8,170 nM,"COc1cc(Cl)cc(C(=O)NCC2CCN(CC(=O)N(C)C3(C)CCC3)CC2)c1 [Compound 591, 3-chloro-5-methoxy-N-((1-(2-(methyl(1-methylcyclobutyl)amino)-2-oxoethyl)piperidin-4-yl)methyl)benzamide]"
9,80 nM,"CN(C(=O)CN1CCC(CNC(=O)c2cc(Cl)cc(Cl)c2)CC1)C1(C)CCC1 [Compound 592, 3,5-dichloro-N-((1-(2-(methyl(1-methylcyclobutyl)amino)-2-oxoethyl)piperidin-4-yl)methyl) benzamide]"
10,260 nM,"CN(C(=O)CN1CCC(CNC(=O)c2cccc(Br)c2)CC1)C1(C)CCC1 [Compound 593, 3-bromo-N-((1-(2-(methyl(1-methylcyclobutyl)amino)-2-oxoethyl)piperidin-4-yl)methyl) benzamide]"
11,80 nM,"CN(C(=O)CN1CCC(CNC(=O)c2cc(Cl)cc(Br)c2)CC1)C1(C)CCC1 [Compound 595, 3-bromo-5-chloro-N-((1-(2-(methyl(1-methylcyclobutyl)amino)-2-oxoethyl)piperidin-4-yl)methyl)benzamide]"
12,160 nM,"COc1cc(Cl)cc(C(=O)NCC2CCN(CC(=O)N(C)C(C)(C)C)CC2)c1 [Compound 596, N-((1-(2-(tert-butyl(methyl)amino)-2-oxoethyl)piperidin-4-yl)methyl)-3-chloro-5-methoxy-benzamide]"
13,6520 nM,"CC(C)(C)OC(=O)N1CC(N2CCC(CNC(=O)c3cc(F)cc(Cl)c3)CC2)C1 [Compound 597, tert-buyl 3-(4-((3-chloro-5-fluorobenzamido)methyl)piperidin-1-yl)azetidine-1-carboxylate]"
14,1650 nM,"CC(C)(C)OC(=O)N1CCC(O)(CN2CCC(CNC(=O)c3cc(F)cc(Cl)c3)CC2)CC1 [Compound 598, tert-butyl 4-((4-((3-chloro-5-fluorobenzamido)methyl)piperidin-1-yl)methyl)-4-hydroxypiperidine-1-carboxylate]"
15,1470 nM,"CC(C)(C)OC(=O)N1CCC(O)(CN2CCC(CNC(=O)c3cc(F)cc(C(F)(F)F)c3)CC2)CC1 [Compound 599, tert-butyl 4-((4-((3-fluoro-5-(trifluoromethyl)benzamido)methyl)piperidin-1-yl)methyl)-4-hydroxy-piperidine-1-carboxylate]"
16,2050 nM,"COc1cc(Cl)cc(C(=O)N2CC(N3CCC(CNC(=O)c4cc(F)cc(Cl)c4)CC3)C2)c1 [Compound 600, 3-chloro-N-((1-(1-(3-chloro-5-methoxybenzoyl)azetidin-3-yl)piperidin-4-yl)methyl)-5-fluoro-benzamide]"
17,1870 nM,"O=C(NCC1CCN(C2CN(C(=O)c3cc(Cl)cc(Cl)c3)C2)CC1)c1cc(F)cc(Cl)c1 [Compound 601, 3-chloro-N-((1-(1-(3,5-dichlorobenzoyl)azetidin-3-yl)piperidin-4-yl)methyl)-5-fluoro-benzamide]"
18,2410 nM,"O=C(NCC1CCN(C2CN(C(=O)c3cccc(Br)c3)C2)CC1)c1cc(F)cc(Cl)c1 [Compound 602, N-((1-(1-(3-bromobenzoyl)azetidin-3-yl)piperidin-4-yl)methyl)-3-chloro-5-fluorobenzamide]"
19,810 nM,"O=C(NCC1CCN(C2CN(C(=O)c3cccc(OC(F)(F)F)c3)C2)CC1)c1cc(F)cc(Cl)c1 [Compound 603, 3-chloro-5-fluoro-N-((1-(1-(3-(trifluoromethoxy)benzoyl)azetidin-3-yl)piperidin-4-yl)methyl)benzamide]"
20,1900 nM,"O=C(NCC1CCN(C2CN(C(=O)c3cc(F)cc(C(F)(F)F)c3)C2)CC1)c1cc(F)cc(Cl)c1 [Compound 604, 3-chloro-5-fluoro-N-((1-(1-(3-fluoro-5-(trifluoromethyl)benzoyl)azetidin-3-yl)piperidin-4-yl)methyl)benzamide]"
21,3580 nM,"O=C(NCC1CCN(C2CN(C(=O)c3cc(F)cc(Cl)c3)C2)CC1)c1cc(F)cc(Cl)c1 [Compound 605, 3-chloro-N-((1-(1-(3-chloro-5-fluorobenzoyl)azetidin-3-yl)piperidin-4-yl)methyl)-5-fluorobenzamide]"
22,3300 nM,"O=C(NCC1CCN(C2CN(C(=O)c3cccc(Cl)c3)C2)CC1)c1cc(F)cc(Cl)c1 [Compound 606, 3-chloro-N-((1-(1-(3-chlorobenzoyl)azetidin-3-yl)piperidin-4-yl)methyl)-5-fluorobenzamide]"
23,3170 nM,"CC(C)(C)C(=O)N1CC(N2CCC(CNC(=O)c3cc(F)cc(Cl)c3)CC2)C1 [Compound 607, 3-chloro-5-fluoro-N-((1-(1-pivaloyl-azetidin-3-yl)piperidin-4-yl)methyl) benzamide]"
24,> 10000 nM,"CC1(C(=O)N2CC(N3CCC(CNC(=O)c4cc(F)cc(Cl)c4)CC3)C2)CC1 [Compound 608, 3-chloro-5-fluoro-N-((1-(1-(1-methylcyclopropanecarbonyl)azetidin-3-yl)piperidin-4-yl)methyl)benzamide]"
25,3050 nM,"O=C(NCC1CCN(C2CN(C(=O)C3(C(F)(F)F)CC3)C2)CC1)c1cc(F)cc(Cl)c1 [Compound 609, 3-chloro-5-fluoro-N-((1-(1-(1-(trifluoromethyl)cyclopropanecarbonyl)azetidin-3-yl)piperidin-4-yl)methyl) benzamide]"
26,770 nM,"O=C(NCC1CCN(C2CN(C(=O)C3(C(F)(F)F)CCC3)C2)CC1)c1cc(F)cc(Cl)c1 [Compound 610, 3-chloro-5-fluoro-N-((1-(1-(1-(trifluoromethyl)cyclobutanecarbonyl)azetidin-3-yl)piperidin-4-yl)methyl) benzamide]"
27,290 nM,"CC1(C(=O)N2CC(N3CCC(CNC(=O)c4cc(F)cc(Cl)c4)CC3)C2)CCC(F)(F)CC1 [Compound 611, 3-chloro-N-((1-(1-(4,4-difluoro-1-methylcyclohexanecarbonyl)azetidin-3-yl)piperidin-4-yl)methyl)-5-fluorobenzamide]"
28,> 10000 nM,"CC(C)(C)NC(=O)N1CC(N2CCC(CNC(=O)c3cc(F)cc(Cl)c3)CC2)C1 [Compound 612, N-tert-butyl-3-(4-((3-chloro-5-fluorobenzamido)methyl)piperidin-1-yl)azetidin-1-carboxamide]"

# From patent US8569344B2, “N-piperidinyl acetamide derivatives as calcium channel blockers” (Zalicus Pharmaceuticals Ltd., priority 2008, dated 2013)
